Data from patent US20220378756A1, “ACTIVATING PYRUVATE KINASE R” (FORMA Therapeutics, Inc., priority 2019, published 2022).

System: 2,3-DPG, ATP and p50 in blood
Assay: Phase 1 SAD/MAD, healthy volunteers: pharmacodynamics
Type: in vivo, human
Settings: for median reduction in the concentration of 2,3-DPG, relative to baseline: HV MAD; for Median Percentage Change in 2,3-DPG Levels / Median Percentage Change in ATP Levels (Day 14) / Mean Absolute Change in p50 (mmHg) (Day 14): HV; for Mean Absolute Change in p50 (mmHg) (Day 14): vs baseline
Source text: This is a first-in-human (FIH), Phase 1 study of Compound 1 that will characterize the safety, PK, and PD of Compound 1 after a single dose and after repeated dosing first in healthy adult volunteers and then in adolescents or adults with sickle cell disease. Initially, a dose range of Compound 1 in single ascending dose (SAD) escalation cohorts will be explored in healthy subjects. Enrollment of healthy subjects into 2-week multiple ascending dose (MAD) escalation cohorts will be initiated once the safety and PK from at least two SAD cohorts is available to inform the doses for the 2-week MAD portion of the study. The MAD cohorts will then run in parallel to the single dose cohorts. A single dose cohort is planned to understand food effects (FE) on the PK of Compound 1. […] Multiple dose studies in SCD subjects will then be initiated upon completion of MAD studies in healthy volunteers. Compound 1 will be administered in 25 mg and 100 mg tablets delivered orally.
In this study, SAD/MAD cohorts are randomized (3 to 1) to receive Compound 1 or placebo (P). Compound 1 was evaluated first in 4 healthy SAD cohorts and 4 healthy MAD (14-day dosing period) cohorts. Based on the safety, and PK/PD profile from HS, Compound 1 is then evaluated in 1 SCD SAD cohort and 2 SCD MAD cohorts. Specifically, based on the safety and pharmacokinetic/pharmacodynamics (PK/PD) profile in healthy volunteer studies, Compound 1 is evaluated in patients (pts) with SCD, first in a single dose (SD or SAD) cohort and then in multiple-dose (MD or MAD) cohorts (14-day and 12-week). Safety assessments include AEs, vital signs, ECGs and laboratory parameters. PK/PD blood sampling was performed on Day 1 (SAD/MAD) and Day 14 (MAD) and up to 72 h after the last dose and at the end-of-study visit. PD parameters included 2,3-DPG, ATP, and p50 in all cohorts with additional PD studies (including oxygen scan) performed only in the SCD cohorts. PD parameters included 2,3-DPG, ATP, p50, RBC deformability with controlled deoxygenation and reoxygenation (Lorrca® oxygen scan) and varying osmolality (Lorrca® osmoscan)). To maintain study blind, pt identifiers were removed when needed.
Four healthy SAD cohorts were evaluated at doses of 200, 400, 700, and 1000 mg, and four healthy MAD cohorts received 200 to 600 mg total daily doses for 14 days at QD or BID dosing (100 mg BID, 200 mg BID, 300 mg BID, and 400 mg QD). In the food effect (FE) cohort, 10 healthy subjects received 200 mg of Compound 1 QD with and without food.
In the SAD cohorts, the subjects' blood 2,3-DPG levels were measured periodically after dosing by a qualified LC-MS/MS method for the quantitation of 2,3-DPG in blood. Decreased 2,3-DPG blood levels were observed 6 hours following a single dose of Compound 1 at all dose levels (earlier timepoints were not collected). Maximum decreases in 2,3-DPG levels generally occurred ˜24 hours after the first dose with the reduction sustained ˜48-72 hr postdose. Table 16 reports the median percentage change in 2,3-DPG blood levels, relative to baseline, measured over time in healthy volunteers after a single dose of Compound 1 (200 mg, 400 mg, 700 mg, or 1000 mg) or placebo. Accordingly, the median reduction in the concentration of 2,3-DPG, relative to baseline, was at least about […] at all dose levels tested 24 hours after administration of the single dose.
In the MAD cohorts, the subjects' blood 2,3-DPG levels were measured periodically after dosing by a qualified LC-MS/MS method for the quantitation of 2,3-DPG in blood. The maximum decrease in 2,3-DPG on Day 14 was 55% from baseline (median). […] Table 18 reports the median percentage change in 2,3-DPG blood levels, relative to baseline, measured over time after the first dose on days 1 and 14 in healthy volunteers who received daily doses of Compound 1 (100 mg BID, 200 mg BID, or 300 mg BID) or placebo for 14 days. […]

[1] = 100 mg BID, Day 14, 0 h after first daily dose
[2] = 100 mg BID, Day 14, 6 h after first daily dose
[3] = 100 mg BID, Day 14, 8 h after first daily dose
[4] = 100 mg BID, Day 14, 12 h after first daily dose
[5] = 100 mg BID, Day 14, 16 h after first daily dose
[6] = 100 mg BID, Day 14, 24 h after first daily dose
[7] = 100 mg BID, Day 14, 48 h after first daily dose
[8] = 100 mg BID, Day 14, 72 h after first daily dose
[9] = 200 mg BID, Day 14, 0 h after first daily dose
[10] = 200 mg BID, Day 14, 6 h after first daily dose
[11] = 200 mg BID, Day 14, 8 h after first daily dose
[12] = 200 mg BID, Day 14, 12 h after first daily dose
[13] = 200 mg BID, Day 14, 16 h after first daily dose
[14] = 200 mg BID, Day 14, 24 h after first daily dose
[15] = 200 mg BID, Day 14, 48 h after first daily dose
[16] = 200 mg BID, Day 14, 72 h after first daily dose

In the case of `O=C([C@H](CO)c1ccccc1)N1CC2=C(C1)CN(S(=O)(=O)c1cnc3c(c1)OCCO3)C2` (single isomer, unassigned) [Compound 1], the “maximum decrease in 2,3-DPG from baseline (median)” value (HV MAD cohorts, Day 14) is reported as 55%, the “median reduction in the concentration of 2,3-DPG, relative to baseline” value (all dose levels, 24 hours after first dose on day 1) is reported as “at least 25%” and the “median reduction in the concentration of 2,3-DPG, relative to baseline” value (all dose levels, 24 hours after first dose on day 14) is reported as “at least 40%”. For the same compound, the “median reduction of p50” value (HV SAD, all dose levels, 24 hours after a single dose) was 3-5 mmHg, the “Median Percentage Change in 2,3-DPG Levels” value (100 mg BID, Day 1, 0 h after first daily dose) was 0.0% and the “Median Percentage Change in 2,3-DPG Levels” value (100 mg BID, Day 1, 6 h after first daily dose) was −16.1%. The “Median Percentage Change in 2,3-DPG Levels” value (100 mg BID, Day 1, 8 h after first daily dose) was −12.1%, the “Median Percentage Change in 2,3-DPG Levels” value (100 mg BID, Day 1, 12 h after first daily dose) was −18.1% and the “Median Percentage Change in 2,3-DPG Levels” value (100 mg BID, Day 1, 16 h after first daily dose) was −18.4%. For the same compound, the “Median Percentage Change in 2,3-DPG Levels” value (100 mg BID, Day 1, 24 h after first daily dose) was −27.8%, the “Median Percentage Change in 2,3-DPG Levels” value [1] was −42.0% and the “Median Percentage Change in ATP Levels (Day 14)” value [1] was 41.5%. For the same compound, the “Median Percentage Change in 2,3-DPG Levels” value [2] was −44.3%, the “Median Percentage Change in ATP Levels (Day 14)” value [2] was 43.8% and the “Median Percentage Change in 2,3-DPG Levels” value [3] was −44.7%. The “Median Percentage Change in ATP Levels (Day 14)” value [3] was 47.8%, the “Median Percentage Change in 2,3-DPG Levels” value [4] was −43.6% and the “Median Percentage Change in ATP Levels (Day 14)” value [4] was 45.4%. For the same compound, the “Median Percentage Change in 2,3-DPG Levels” value [5] was −43.9%, the “Median Percentage Change in ATP Levels (Day 14)” value [5] was 44.8% and the “Median Percentage Change in 2,3-DPG Levels” value [6] was −44.1%. For the same compound, the “Median Percentage Change in ATP Levels (Day 14)” value [6] was 55.0%, the “Median Percentage Change in 2,3-DPG Levels” value [7] was −34.7% and the “Median Percentage Change in ATP Levels (Day 14)” value [7] was 52.2%. The “Median Percentage Change in 2,3-DPG Levels” value [8] was −20.2%, the “Median Percentage Change in ATP Levels (Day 14)” value [8] was 49.2% and the “Mean Absolute Change in p50 (mmHg) (Day 14)” value (200 mg BID for 14 days) was −4.14 mmHg. The “Median Percentage Change in 2,3-DPG Levels” value (200 mg BID, Day 1, 0 h after first daily dose) was 0.0%, the “Median Percentage Change in 2,3-DPG Levels” value (200 mg BID, Day 1, 6 h after first daily dose) was −13.1% and the “Median Percentage Change in 2,3-DPG Levels” value (200 mg BID, Day 1, 8 h after first daily dose) was −22.3%. The “Median Percentage Change in 2,3-DPG Levels” value (200 mg BID, Day 1, 12 h after first daily dose) was −23.1%, the “Median Percentage Change in 2,3-DPG Levels” value (200 mg BID, Day 1, 16 h after first daily dose) was −33.9% and the “Median Percentage Change in 2,3-DPG Levels” value (200 mg BID, Day 1, 24 h after first daily dose) was −43.5%. The “Median Percentage Change in 2,3-DPG Levels” value [9] was −48.2%, the “Median Percentage Change in ATP Levels (Day 14)” value [9] was 55.3% and the “Median Percentage Change in 2,3-DPG Levels” value [10] was −48.5%. For the same compound, the “Median Percentage Change in ATP Levels (Day 14)” value [10] was 48.1%, the “Median Percentage Change in 2,3-DPG Levels” value [11] was −44.3% and the “Median Percentage Change in ATP Levels (Day 14)” value [11] was 58.4%. For the same compound, the “Median Percentage Change in 2,3-DPG Levels” value [12] was −42.2%, the “Median Percentage Change in ATP Levels (Day 14)” value [12] was 56.2% and the “Median Percentage Change in 2,3-DPG Levels” value [13] was −42.9%. The “Median Percentage Change in ATP Levels (Day 14)” value [13] was 57.0%, the “Median Percentage Change in 2,3-DPG Levels” value [14] was −44.3% and the “Median Percentage Change in ATP Levels (Day 14)” value [14] was 64.0%. For the same compound, the “Median Percentage Change in 2,3-DPG Levels” value [15] was −38.7%, the “Median Percentage Change in ATP Levels (Day 14)” value [15] was 58.9% and the “Median Percentage Change in 2,3-DPG Levels” value [16] was −20.2%. The “Median Percentage Change in ATP Levels (Day 14)” value [16] was 54.0%, the “Mean Absolute Change in p50 (mmHg) (Day 14)” value (300 mg BID for 14 days) was −5.34 mmHg and the “Median Percentage Change in 2,3-DPG Levels” value (300 mg BID, Day 1, 0 h after first daily dose) was 0.0%. For the same compound, the “Median Percentage Change in 2,3-DPG Levels” value (300 mg BID, Day 1, 6 h after first daily dose) was −18.8%, the “Median Percentage Change in 2,3-DPG Levels” value (300 mg BID, Day 1, 8 h after first daily dose) was −23.8% and the “Median Percentage Change in 2,3-DPG Levels” value (300 mg BID, Day 1, 12 h after first daily dose) was −31.6%.
